Laboratory results as given in article PMC7602980 (Biomolecules, 2020).
“And” between values parts separate entries of the source, which are not always exact repeats. Equal entries are not always repeated.

How the values were obtained:
[1] = target: T1, CaM (Rattus norvegicus, UniProt P0DP29); assay: NMR titration (15N-HSQC) of 15N-CaM with Cx43CL136-158 peptides; type: binding; conditions: result in words
T1 construct: made in house; host or cells: pAED4 vector
Protocol: (§4) All polypeptides were equilibrated in 1x phosphate-buffered saline (1x PBS) at pH 5.8 or KCl 100 mM, CaCl2 5 mM at pH 6.5 using NAP-5 columns (GE Healthcare, #17-0853-01, Chicago, MI, USA) by dialysis in Slide-A-Lyzer G2 Dialysis Cassettes, 2K MWCO (Thermo Scientific, #87717, Waltham, MA, USA).
(§5) NMR data were acquired at 7 °C or 25 °C using a 600 MHz Varian INOVA (Agilent Technologies, Santa Clara, CA, USA) or a 600 MHz Bruker Avance-III HD spectrometer (Bruker, Billerica, MA, USA) outfitted with a cryoprobe at the NMR Facility of the University of Nebraska Medical Center. […] NMR spectra were processed using NMRPipe (IBBR, Rockville, MD, USA) [46] and analyzed using NMRView (https://nmrfx.org) [47].
(§6) Data were acquired with 1024 complex points in the direct dimension and 128 complex points in the indirect dimension. Chemical shift variations were calculated according to the formula Δσ = √((ΔδHN)^2 + (ΔδN/5)^2) and plotted as a function of ligand concentration. Dissociation constants (KD) were calculated by nonlinear fitting of the titration curves using GraphPad Prism 7.0 (GraphPad Software, La Jolla, CA, USA) and averaging at least six curves.

[2] = test system: Cx43; assay: Ionomycin treatment and Triton X-100 solubility assay, HeLa^Cx43 cells, Western blot; type: cell-based; conditions: 100 nM PMA, 1 μM ionomycin, 30 min; insoluble fraction
Source text: (§1) Briefly, 80% confluent parental HeLa cells were transfected with Cx43 WT or ODDD mutations containing pD2529 (puromycin resistant) plasmid using Lipofectamine 2000 (Invitrogen, # 11668019) at a 1:1 (reagent:plasmid) ratio in OptiMem (Life Technologies, #31985070, Carlsbad, CA, USA) under antibiotic free conditions. After re-plating and once colonies were formed, Western blot and immunofluorescence were used to screen the clones (α-Cx43, Sigma #6219, 1:10,000, MilliporeSigma, St. Louis, MO, USA).
After reaching 100% confluency, HeLa^Cx43 cells seeded on 10-cm dishes were incubated in presence of 1 μM ionomycin (Sigma #I0634) for 2 min for equilibration and then either treated with 1 μM ionomycin only as control, or 1 μM ionomycin plus 20 mM Ca^2+, 100 nM PMA (Sigma, # P1585), or 20 mM Ca^2+/100 nM PMA and incubated for 30 min.
The Triton X-100 solubility assay was modified from a method described previously. […] Protein lysate content was quantified by the BCA assay and normalized. […] After analysis of the insoluble fraction by Western blot, quantification from three independent replicates was measured using the iBright Analysis Software (version 3.1.3, Thermo Scientific) and statistical analysis was performed in GraphPad Prism 8.0 (San Diego, CA, USA) using the Ordinary one way Anova calculation. p-values < 0.05 were considered statistically significant.

[3] = test system: HeLa cells; assay: Scrape loading dye transfer, stably transfected HeLa cells; type: cell-based; conditions: cell layers past scrape; 100% confluent HeLa
Source text: as §1
Cell communication was evaluated as previously described. Briefly, stably transfected HeLa cells described above were grown to 100% confluency. Media was replaced with pre-warmed dye transfer solution (0.25% Lucifer yellow CH (Life Technologies # L453) and 0.1% Texas Red 1 × 10^4 (Life Tech # D1863) in 1× PBS at 37 °C) and cells were immediately scrape-loaded with a fine edged micro-scalpel by three longitudinal scratches. After incubating at 37 °C for 4 min, cells were rinsed with 1× PBS and further incubated in antibiotic free media for 6 min. Dye spread was then stopped by washing the cells with 1× PBS containing 1 mM CaCl2 and 1 mM MgCl2. Cells were finally fixed, DAPI stained, mounted, and imaged.

[4] = test system: HeLa cells; assay: In situ Triton X-100 extraction and immunofluorescence, stably transfected HeLa cells; type: cell-based; conditions: 1% Triton X-100 in situ extraction
Source text: as §1
After reaching 100% confluency, cells seeded on glass coverslips were fixed in 4% paraformaldehyde (1× PBS, pH 7.4) and then blocked in 5% goat serum (1× TBS, 0.4% Triton X-100). Coverslips were then incubated with the appropriate primary antibody (α-Cx43, Sigma #6219, 1:200) diluted in blocking buffer overnight at 4 °C. Fluorescent secondary antibody (α-Rb Alexa Fluor 488, Cell Signaling #4412, 1:300) was then applied, followed by DAPI (100 ng/mL in 1× TBS). Coverslips were mounted on a drop of SlowFade anti-fade (Life Technologies, Carlsbad, CA, USA # S36972), sealed with clear nail polish, and imaged.
The in situ detergent extraction was previously described. […]

[5] = Circular dichroism (far UV), secondary structure; type: physicochemical; conditions: for CD structure with TFE: 1× PBS pH 5.8, up to 25% TFE, result in words
Protocol: CD experiments were performed on a JASCO J-815 CD spectrometer at 7 °C in the far UV (260–190 nm) with a 0.1 mm path length quartz cell, using a bandwidth of 1 nm, an integration time of 1 s, and a scan rate of 50 nm/min. Each spectrum is the average of 5 scans. All spectra were corrected by subtracting the solvent spectrum acquired under identical conditions. The protein concentration for each sample was 200–500 μM in 1× PBS at pH 5.8. For CD data collection in presence of TFE, 10× PBS was used to keep the final sample at a constant buffer concentration corresponding to 1x PBS. All CD data were processed using the Spectra Analysis software of Jasco Manager Version 2 (Jasco, Easton, PA, USA).

[6] = test system: Cx43CT domain; conditions: ref [14]; cited from earlier work
Source text: (§2) The CT plays a role in the trafficking, localization, and turnover of gap junction channels via numerous post-translational modifications and protein–protein interactions. The CT is also important for regulating junctional conductance and voltage sensitivity. […] Conversely, only a few protein partners have been identified to directly bind the CL. For example, in the ...

[7] = test system: Cx43 gap junction channels; conditions: peptide in patch pipette; ref [15]; cited from earlier work
Source text: as §2

[8] = pH 5.8; ref [14]; cited from earlier work
Source text: as §2

[9] = test system: ERK2; assay: In vitro kinase assay, ERK2 phosphorylation of GST-Cx43CT236-382; type: biochemical; conditions: CaM ~90% saturation of Cx43CT; 6 h RT; Western blot pS279/S282; three independent experiments
Protocol: (§3) After incubation of 4 h at RT for Src, 6 h at 30 °C for ERK1, and 6 h at RT for ERK2, phosphorylation levels of the Cx43CT were detected by Western blot using Cx43 specific anti-phospho antibodies. Three independent experiments were performed and phosphorylation levels were quantified using the iBright Analysis Software and statistical analysis were performed in GraphPad Prism 8.0 using a Student’s t-test. p-values < 0.05 were considered statistically significant.

[10] = test system: ERK1; assay: In vitro kinase assay, ERK1 phosphorylation of GST-Cx43CT236-382; type: biochemical; conditions: CaM ~90% saturation of Cx43CT; 6 h 30 °C; Western blot pS279/S282; three independent experiments; Student's t-test
Protocol: as §3

[11] = test system: Cx43CT236-382; assay: NMR titration (15N-HSQC) of 15N-Cx43CT236-382 with CaM; type: binding, rat; conditions: Ca^+2 not present, 10 mM EGTA
Protocol: as §4, §5, §6

[12] = test system: Src; assay: In vitro kinase assay, Src phosphorylation of GST-Cx43CT236-382; type: biochemical; conditions: CaM ~90% saturation of Cx43CT; 4 h RT; Western blot Cx43 pY265; three independent experiments
Protocol: as §3

CC[C@H](C)[C@H](NC(=O)CNC(=O)[C@H](Cc1ccc(O)cc1)NC(=O)[C@@H](N)CCCCN)C(=O)N[C@@H](CCC(=O)O)C(=O)N[C@@H](CCC(=O)O)C(=O)N[C@@H](Cc1c[nH]cn1)C(=O)NCC(=O)N[C@@H](CCCCN)C(=O)N[C@H](C(=O)N[C@@H](CCCCN)C(=O)N[C@H](C(=O)N[C@@H](CCCNC(=N)N)C(=O)NCC(=O)NCC(=O)N[C@@H](CC(C)C)C(=O)N[C@@H](CC(C)C)C(=O)N[C@@H](CCCNC(=N)N)C(=O)N[C@H](C(=O)N[C@@H](Cc1ccc(O)cc1)C(=O)N[C@H](C(=O)N[C@H](C(=O)N[C@@H](CO)C(=O)O)[C@@H](C)CC)[C@@H](C)CC)[C@@H](C)O)[C@@H](C)O)C(C)C [M147T]
KD compared with control (WT) [1]: little-to-no difference in KD

CCCCCCCCCCCCCC(=O)O[C@@H]1[C@@H](C)[C@@]2(O)[C@@H](C=C(CO)C[C@]3(O)C(=O)C(C)=C[C@@H]23)[C@@H]2C(C)(C)[C@]12OC(C)=O [PMA]
Y265 phosphorylation [2]: increasing Y265 phosphorylation
level of total Cx43 at the plaque [2]: decreased the level of total Cx43 at the plaque

CC[C@H](C)[C@H](NC(=O)CNC(=O)[C@H](Cc1ccc(O)cc1)NC(=O)[C@@H](N)CCCCN)C(=O)N[C@@H](CCC(=O)O)C(=O)N[C@@H](CCC(=O)O)C(=O)N[C@@H](Cc1c[nH]cn1)C(=O)NCC(=O)N[C@@H](CCCCN)C(=O)N[C@H](C(=O)N[C@@H](CCCCN)C(=O)N[C@@H](CCSC)C(=O)N[C@@H](CCC(N)=O)C(=O)NCC(=O)NCC(=O)N[C@@H](CC(C)C)C(=O)N[C@@H](CC(C)C)C(=O)N[C@@H](CCCNC(=N)N)C(=O)N[C@H](C(=O)N[C@@H](Cc1ccc(O)cc1)C(=O)N[C@H](C(=O)N[C@H](C(=O)N[C@@H](CO)C(=O)O)[C@@H](C)CC)[C@@H](C)CC)[C@@H](C)O)C(C)C [R148Q]
KD compared with control (WT) [1]: little-to-no difference in KD

CC[C@H](C)[C@H](NC(=O)CNC(=O)[C@H](Cc1ccc(O)cc1)NC(=O)[C@@H](N)CCCCN)C(=O)N[C@@H](CCC(=O)O)C(=O)N[C@@H](CCC(=O)O)C(=O)N[C@@H](Cc1c[nH]cn1)C(=O)NCC(=O)N[C@@H](CCCCN)C(=O)N[C@H](C(=O)N[C@@H](CCCCN)C(=O)N[C@@H](CCSC)C(=O)N[C@@H](CCCNC(=N)N)C(=O)NCC(=O)NCC(=O)N[C@@H](CC(C)C)C(=O)N[C@@H](CC(C)C)C(=O)N[C@@H](CCCNC(=N)N)C(=O)N[C@@H](C)C(=O)N[C@@H](Cc1ccc(O)cc1)C(=O)N[C@H](C(=O)N[C@H](C(=O)N[C@@H](CO)C(=O)O)[C@@H](C)CC)[C@@H](C)CC)C(C)C [T154A]
KD compared with control (WT) [1]: little-to-no difference in KD

Cx43 WT: Cx43 wild type stably expressed in HeLa cells
Lucifer Yellow dye transfer [3]: greater than a fifth-order dye transfer
Triton X-100 solubility / localization [4]: only a small amount of Cx43 washed away in the presence of Triton X-100

Cx43CL100-155: recombinant rat full-length Cx43CL domain, residues M100-Y155 (MRKEEKLNKKEEELKVAQTDGVNVEMHLKQIEIKKFKYGIEEHGKVKMRGGLLRTY; cytoplasmic loop; UniProt P08050 100-155, looked up, fragment)
CD structure with TFE [5]: able to form α-helical structure
α-helical content ([5]; 1× PBS, pH 5.8, 7 °C, 200–500 μM, estimated by comparing previous data): less than 5%

Cx43CL100-158: recombinant rat Cx43CL construct, residues M100-S158 (MRKEEKLNKKEEELKVAQTDGVNVEMHLKQIEIKKFKYGIEEHGKVKMRGGLLRTYIIS; cytoplasmic loop; UniProt P08050 100-158, looked up, fragment)
CD structure with TFE [5]: did not elicit the same degree of α-helical content as Cx43CL100-155

Cx43L1: synthetic peptide, Cx43CL residues M100-A116 (MRKEEKLNKKEEELKVA; UniProt P08050 100-116, looked up, fragment)
CD structure with TFE [5]: at 25% of TFE, the spectrum was still typical of a predominantly random coiled protein

Cx43L2: synthetic peptide, Cx43CL residues D119-K144
CD structure with TFE [5]: clearly adopted an α-helical structure
affinity for the CT at pH 5.8 compared with pH 7.4 [6]: greater than at pH 7.4
effect on single channel behaviour [7]: interfered with the occurrence of the residual state and prolonged open time
secondary structure [8]: two short α-helices

calmodulin [CaM]
inhibition of ERK2 phosphorylation of Cx43CT [9]: ~ 30% and 30%
effect on ERK1 phosphorylation of Cx43CT [10]: not statistically significant
interaction of CaM with Cx43CT without Ca^2+ [11]: the interaction is lost when Ca^+2 is not present
inhibition of Src phosphorylation of Cx43CT [12]: ~ 90% and 90%
